From article PMC8440871, “LC-Q-Orbitrap-MS/MS Characterization, Antioxidant Activity, and α-Glucosidase-Inhibiting Activity With In Silico Analysis of Extract From Clausena Indica (Datz.) Oliv Fruit Pericarps” (Frontiers in Nutrition, 2021)
Converted amounts (≈) assume the structure as drawn.

Target: α-Glucosidase from Saccharomyces cerevisiae (Saccharomyces cerevisiae, UniProt P53341)
Assay: α-Glucosidase inhibiting activity (α-GIA), p-NPG substrate
Format: biochemical
Settings: 0.5 U/ml enzyme, pH 6.8, 37°C, 5 mM p-NPG

Sequence of α-Glucosidase from Saccharomyces cerevisiae (P53341 whole entry): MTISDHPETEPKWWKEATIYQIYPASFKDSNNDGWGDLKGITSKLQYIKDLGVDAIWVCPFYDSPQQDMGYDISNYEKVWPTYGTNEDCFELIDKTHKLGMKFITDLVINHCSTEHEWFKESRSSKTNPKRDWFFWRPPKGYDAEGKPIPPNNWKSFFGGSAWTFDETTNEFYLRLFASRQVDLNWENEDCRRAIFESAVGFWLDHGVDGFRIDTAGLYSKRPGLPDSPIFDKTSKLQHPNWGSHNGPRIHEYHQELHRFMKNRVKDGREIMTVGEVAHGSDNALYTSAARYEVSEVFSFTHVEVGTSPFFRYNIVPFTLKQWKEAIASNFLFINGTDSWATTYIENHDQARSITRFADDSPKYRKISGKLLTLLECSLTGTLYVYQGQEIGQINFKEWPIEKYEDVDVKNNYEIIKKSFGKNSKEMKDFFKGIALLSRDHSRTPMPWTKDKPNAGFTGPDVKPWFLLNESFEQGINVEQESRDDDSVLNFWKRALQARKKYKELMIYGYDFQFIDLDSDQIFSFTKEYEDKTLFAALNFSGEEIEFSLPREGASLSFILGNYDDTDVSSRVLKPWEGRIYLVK

Oc1cc(O)c2c(c1)O[C@H](c1ccc(O)c(O)c1)[C@@H](O)C2 [(+)-Catechin]
IC50 α-GIA: 374.23 µg/mL (≈ 1290 µM)
